Experimental data taken from US4788206A, “Pentadieneamides” (Hoffmann-La Roche Inc., priority 1987, dated 1988).
Where two headings read alike, the source gives them in different places.

Columns and labels:
[1] = molecular target: T1, PAF Binding, dog platelets (Canis lupus familiaris, UniProt A0A8I3NSH0); test: PAF Binding Assay (inhibition of 3H-PAF binding to washed dog platelets)
T1 construct: Washed platelets were prepared by resuspending the platelet pellet once with PBS containing 1 mM EDTA; from tissue; host or cells: washed platelets from dog blood
T1 sequence (A0A8I3NSH0 1-343): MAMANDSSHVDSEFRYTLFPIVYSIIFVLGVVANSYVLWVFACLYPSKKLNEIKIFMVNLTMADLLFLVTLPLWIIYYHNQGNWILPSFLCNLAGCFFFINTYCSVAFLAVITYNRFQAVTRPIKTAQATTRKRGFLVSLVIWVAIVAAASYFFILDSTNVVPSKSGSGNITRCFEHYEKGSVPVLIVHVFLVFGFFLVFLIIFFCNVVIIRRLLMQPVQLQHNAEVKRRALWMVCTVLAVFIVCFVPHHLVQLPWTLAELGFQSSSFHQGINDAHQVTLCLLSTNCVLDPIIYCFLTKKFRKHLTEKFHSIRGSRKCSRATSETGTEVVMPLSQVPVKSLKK
Procedure: The binding assay was done in 400 μl polyethylene microcentrifuge tubes (Beckman) containing 50 μl of an oil mixture of 2 parts Siliconol AR200 (Serva): 1 part Silicone Fluid (Arthur H. Thomas). Buffer, standards, or analogs (150 μl total volume) were added to the tubes. Radiolabelled ^3 H-PAF (50 μl) was then added to the tubes. The reaction was started by the addition of 50 μl of dog platelets (2×10^7 platelets). The tubes were capped, inverted several times to mix, and incubated for 10 minutes at room temperature. The platelets were separated from the incubation mixture by centrifuging 1 minute in a Beckman Microfuge B centrifuge. The tip of the microfuge tube was cut off, and the platelets were washed out of the tip with 200 μl of 50% methanol (Burdick and Jackson). Aquasol (NEN, 10 ml) was added and the radioactivity in the samples was determined using an LS 8100 Beckman liquid scintillation counter linked to a Techtran tape recorder. Data was processed through an in-house computer system. Alternatively, radioactivity was determined using a Searle Mark III liquid scintillation counter linked to a Iso-Data microprocessor.
(b) Preparation of Platelets
Blood was collected from anesthesized or unanesthesized dogs into 50 ml plastic centrifuge tubes containing 3.8% sodium citrate as the anticoagulant (1 volume of citrate/9 volumes of blood). The red cells were removed by centrifugation for 15 minutes at 600 rpm (100-125 g) at room temperature. An aliquot of the supernatant platelet rich plasma (PRP) was saved for cell counting and the remainder was acidified to PH 6.5 with 0.15M citric acid. The platelet pellet was obtained after a 10 minute centrifugation at 2000 rpm (1000 g) at room temperature. Washed platelets were prepared by resuspending the platelet pellet once with PBS containing 1 mM EDTA, centrifuging as noted, and then resuspending the platelets in 0.1% BSA-PBS. An aliquot of the washed platelets was counted. Platelets used for binding assays were diluted to 2×10^7 platelets/assay tube (4×10^8 platelets/ml). Platelet counting was done using a Royco Cell-Crit 921.

[2] = system: PAF-Induced Bronchoconstriction; test: PAF Induced Bronchoconstriction Assay; format: in vivo, guinea pig; details: for inhibition in vivo at 50 mg/kg: Cavia porcellus, po, 50 mg/Kg p.o., 2-hour pretreatment, read-out: Percent Inhib. of PAF-Induced Bronchoconstriction, 50 mg/Kg p.o.; for Percent Inhib. of PAF-Induced Bronchoconstriction, mg/Kg i.v.: i.v. (dose not given), 1 minute pretreatment, PAF 1.0 μg/kg i.v.
Procedure: PAF Induced Bronchoconstriction Assay
Male animals (Hartlet Strain 400-500 g) were anesthetized with urethane (2 g/kg. i.p.). Each animals' trachea was cannulated and the guinea pigs were repirated using a Harvard small animal rodent respirator (3.0 cc stroke volume, 40 breaths per min.). Tracheal pressure was recorded from a cannula inserted in the trachea and connected to a Statham Pressure Transducer.
The jugular vein was cannulated for administering compounds. Spontaneous breathing was arrested with succinylcholine (1.2 mg/kg. i.v.) administered 2 minutes prior to intravenous injection of platelet activating factor (PAF).
For, the intravenous testing, the guinea pig is given a 5-minute pretreatment with propranolol at a dose of 0.1 mg/kg intravenously. The test compound is administered with a 1 minute pretreatment prior to intravenous challenge with PAF. The animal is than challenged with a 1.0 μg/kg intravenous dose of PAF and the change is tracheal pressure is measured.
For the oral testing, the procedure includes a 2-hour pretreatment period with the test compound administered through an oral gavage tube. Propranolol or succinylcholine and PAF are administered intravenously, and the change in tracheal pressure measured.
The change is tracheal pressure is determined by subtracting the steady state baseline achieved after administration of succinylcholine from the peak bronchoconstriction seen after challenge with PAF. The mean is calculated for each test compound and compared to the mean of the control animals to give the percent inhibition of bronchoconstriction. The standard error is calcuated as the standard error of the mean.

[3] = dog platelets, 3H-PAF, 10 minutes at room temperature, read-out: Inhib of PAF Binding IC50

| Compound | IC50 [1, 3] [nM] | inhibition in vivo at 50 mg/kg [2] [%] | Percent Inhib. of PAF-Induced Bronchoconstriction, mg/Kg i.v. [2] [%] | IC50 [1] [nM] |
| --- | --- | --- | --- | --- |
| CCC(CCCc1cccnc1)NC(=O)/C=C/C=C(c1ccc(OC)cc1)c1ccc(OC)cc1 (racemic) [[R,S-(E)]-N-1-ethyl-4-(3-pyridinyl)butyl]-5,5-bis(4-methoxyphenyl)-2,4-pentadienamide] | 90 | 99 ± 1 | 86 ± 8 | – |
| COc1ccc(C(=C/C=C/C(=O)NC(CCCc2cccnc2)c2ccc(Br)cc2)c2ccc(OC)cc2)cc1 (racemic) [[R,S-(E)]-N-[1-(4-bromophenyl)-4-(3-pyridinyl)butyl]-5,5-bis(4-methoxyphenyl)2.4-pentadienamide] | > 1000 | – | 6 ± 13 | – |
| CCCCC(CCCc1cccnc1)NC(=O)/C=C/C=C(c1ccc(OC)cc1)c1ccc(OC)cc1 (racemic) [[R,S-(E)]-N-[1-butyl-4-(3-pyridinyl)butyl]-5,5-bis(4-methoxyphenyl)-2,4-pentadienamide] | > 1000 | – | 42 ± 7 | – |
| COc1ccc(C(=C/C=C/C(=O)NC(CCCc2cccnc2)C2CCCCC2)c2ccc(OC)cc2)cc1 (racemic) [[R,S-(E)]-N-[1-cyclohexyl-4-(3-pyridinyl)butyl]-5,5-bis(4-methoxyphenyl)-2,4-pentadienamide] | > 1000 | – | 11 ± 15 | – |
| COc1ccc(C(=C/C=C/C(=O)NC(CCCc2cccnc2)C2CCCC2)c2ccc(OC)cc2)cc1 (racemic) [[R,S-(E)]-N-[1-cyclopentyl-4-(3-pyridinyl)butyl]-5,5-bis-(4-methoxyphenyl)-2,4-pentadienamide] | > 1000 | – | 19 ± 14 | – |
| COc1ccc(C(=C/C=C/C(=O)NC(CCCc2cccnc2)C2CC2)c2ccc(OC)cc2)cc1 (racemic) [[R,S-(E)]-N-[1-cyclopropyl-4-(3-pyridinyl)butyl]-5,5-bis-(4-methoxyphenyl)-2,4-pentadienamide] | 60 | 99 ± 0.3 | 98 ± 1 | – |
| CCCCC/C(=C\C=C\C(=O)NC(C)CCCc1cccnc1C)c1ccc(OC)cc1 (racemic) [[R,S-(E,E)]-5-(4-methoxyphenyl)-N-[1-methyl-4-(2-methyl-3-pyridinyl)butyl]-2,4-decadienamide] | 5 | – | 77 ± 5 | – |
| COc1ccc(/C(=C/C=C/C(=O)NCCCCc2cccnc2)c2ccccc2OC)cc1 [(2E,4Z)-5-(2-methoxyphenyl)-5-(4-methoxyphenyl)-N-[4-(3-pyridinyl)butyl]-2,4-pentadienamide] | 55 | – | 36 ± 6 | – |
| COc1ccc(/C(=C/C=C/C(=O)NCCCCc2cccnc2)c2cccnc2)cc1 [(2E,4Z)-5-(4-methoxyphenyl)-5-(3-pyridinyl)-N-[4-(3-pyridinyl)butyl]-2,4-pentadienamide] | 50 | 39 ± 8 | 78 ± 10 | – |
| CCCCC/C(=C/C=C/C(=O)NCCCCc1cccnc1)c1ccc(OC)cc1 [(2E,4Z)-5-(4-methoxyphenyl)-N-[4-(3-pyridinyl)butyl]-2,4-decadienamide] | 40 | – | 68 ± 11 | – |
| COc1ccccc1C(=C/C=C/C(=O)NCCCCc1cccnc1)c1ccccc1OC [(E)-5,5-bis (2-methoxyphenyl)-N-[4-(3-pyridinyl)butyl]-2,4-pentadienamide] | 40 | – | 40 ± 2 | – |
| COc1ccc(C(=C/C=C/C(=O)NCCCCc2cccnc2)c2ccc(OC)c(OC)c2)cc1OC [(E)-5,5-bis(3,4-Dimethoxyphenyl)-N-[4-(3-pyridinyl)butyl]-2,4-pentadienamide] | 55 | 71 ± 2 | 78 ± 6 | – |
| O=C(/C=C/C=C(c1cccc([N+](=O)[O-])c1)c1cccc([N+](=O)[O-])c1)NCCCCc1cccnc1 [(E)-5,5-bis(3-nitrophenyl)-N-[4-(3-pyridinyl)butyl)-2,4-pentadienamide] | – | – | 18 ± 2 | 115 |
| COc1ccc(C(=C/C=C/C(=O)NCCCc2ccncc2)c2ccc(OC)cc2)cc1 [(E)-5,5-bis(4-methoxyphenyl)-N-[3-(4-pyridinyl)propyl]-2,4-pentadienamide] | 100 | – | 8 ± 12 | – |
| COc1ccc(C(=C/C=C/C(=O)Nc2ccc(Cc3cccnc3)cc2)c2ccc(OC)cc2)cc1 [(E)-5,5-bis(4-methoxyphenyl)-N-[4-(3pyridinylmethyl)phenyl]-2,4-pentadienamide] | 250 | – | 3 ± 7 | – |
| COc1ccc(C(=C/C=C/C(=O)NCCCCCc2ccccn2)c2ccc(OC)cc2)cc1 [(E)-5,5-bis(4-methoxyphenyl)-N-[5-(2-pyridinyl)pentyl]-2,4-pentadienamide] | 1000 | – | 27 ± 6 | – |
| COc1ccc(C(=C/C=C/C(=O)NC(CCCc2cccnc2)CCCc2cccnc2)c2ccc(OC)cc2)cc1 [(E)-5,5-bis-(4-methoxyphenyl)-N-[1-[3-(3-pyridinyl)propyl]-4-(3-pyridinyl)-butyl]-2,4-pentadienamide] | 500 | – | 50 ± 15 | – |
| COc1ccc(C(=C/C=C/C(=O)Nc2ccc(-c3cccnc3)cc2)c2ccc(OC)cc2)cc1 [(E)-5,5-bis-(4-methoxyphenyl)-N-[4-(3-pyridinyl)phenyl]-2,4-pentadienamide] | 10 | 84 ± 8 | 97 ± 1 | – |
| COc1ccc(/C(=C\C=C\C(=O)NCCCCc2cccnc2)c2ccccc2OC)cc1 [(E,E)-5-(2-methoxyphenyl)-5-(4-methoxyphenyl)-N-[4-(3-pyridinyl)butyl]-2,4-pentadienamide] | 45 | 21 ± 7 | 80 ± 5 | – |
| COc1ccc(/C(=C\C=C\C(=O)NCCCCc2cccnc2)c2cccnc2)cc1 [(E,E)-5-(4-methoxyphenyl)-5-(3-pyridinyl)-N-[4-(3-pyridinyl)butyl]-2,4-pentadienamide] | 25 | 85 ± 8 | 97 ± 0.6 | – |
| CCCCC/C(=C\C=C\C(=O)NCCCCc1cccnc1)c1ccc(OC)cc1 [(E,E)-5-(4-methoxyphenyl)-N-[4-(3-pyridinyl)butyl]-2,4-decadienamide] | 15 | 26 ± 2 | 99 ± 1 | – |
| CCCCC/C(=C/C=C/C(=O)N[C@H](C)CCCc1cccnc1)c1cccc(F)c1 [[R-(2E,4Z)]-5-(3-fluorophenyl)-N-[1-methyl-4-(3-pyridinyl)butyl]-2,4-decadienamide] | 105 | – | 93 ± 1 | – |
